How the values were obtained:
Test in all cases: relative viability (nuclei count vs DMSO), 5 days (fraction); higher = more cells survive
[1] = test system: NCI-H1975
Outline: (§1)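 Dosing by pin tool came one day after lung cancer cell lines were seeded in 1536-well plates, using either one drug or a fixed anchor-drug dose plus five library-drug doses (not always all listed) in √10 steps. After 5 days, nuclei were counted on 4× images. Relative viability is treated-well nuclei count divided by vehicle-well nuclei count, and values are medians of duplicate plates.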

[2] = test system: NCI-H1792
Outline: as §1

[3] = test system: COR-L 105
Outline: as §1

[4] = test system: NCI-H1437
Outline: as §1

[5] = test system: SW 1573
Outline: as §1

[6] = test system: NCI-H1355
Outline: as §1

[7] = test system: NCI-H727
Outline: as §1

[8] = test system: NCI-H1915
Outline: as §1

[9] = test system: LCLC-103H
Outline: as §1

[10] = test system: NCI-H2228
Outline: as §1

[11] = test system: NCI-H2009
Outline: as §1

[12] = test system: SK-LU-1
Outline: as §1

[13] = test system: HOP-62
Outline: as §1

[14] = test system: CAL-12T
Outline: as §1

[15] = test system: HCC-366
Outline: as §1

[16] = test system: NCI-H23
Outline: as §1

[17] = test system: A-427
Outline: as §1

[18] = test system: NCI-H1395
Outline: as §1

[19] = test system: HARA
Outline: as §1

[20] = test system: NCI-H1755
Outline: as §1

[21] = test system: NCI-H460
Outline: as §1

[22] = test system: EMC-BAC-2
Outline: as §1

[23] = test system: HCC-827
Outline: as §1

O=C(O)c1ccc(-c2c[nH]c3ncc(-c4ccccc4)cc23)cc1C1CCCC1 + CC(=O)Nc1cccc(-n2c(=O)n(C3CC3)c(=O)c3c(Nc4ccc(I)cc4F)n(C)c(=O)c(C)c32)c1 [Trametinib] (partner 0.02 µM)
relative viability ([1]; first compound 0.04 µM): 0.319 | relative viability ([1]; first compound 0.1265 µM): 0.435 | relative viability ([1]; first compound 0.4 µM): 0.395 | relative viability ([1]; first compound 1.265 µM): 0.32 | relative viability ([2]; first compound 0.04 µM): 0.375 | relative viability ([2]; first compound 0.1265 µM): 0.454 | relative viability ([2]; first compound 0.4 µM): 0.407 | relative viability ([2]; first compound 1.265 µM): 0.392 | relative viability ([3]; first compound 0.04 µM): 0.402 | relative viability ([3]; first compound 0.1265 µM): 0.456 | relative viability ([3]; first compound 0.4 µM): 0.46 | relative viability ([3]; first compound 1.265 µM): 0.506 | relative viability ([4]; first compound 0.04 µM): 0.476 | relative viability ([4]; first compound 0.1265 µM): 0.609 | relative viability ([4]; first compound 0.4 µM): 0.541 | relative viability ([4]; first compound 1.265 µM): 0.202 | relative viability ([5]; first compound 0.04 µM): 0.476 | relative viability ([5]; first compound 0.1265 µM): 0.584 | relative viability ([5]; first compound 0.4 µM): 0.439 | relative viability ([5]; first compound 1.265 µM): 0.365 | relative viability ([6]; first compound 0.04 µM): 0.42 | relative viability ([6]; first compound 0.1265 µM): 0.412 | relative viability ([6]; first compound 0.4 µM): 0.459 | relative viability ([6]; first compound 1.265 µM): 0.391 | relative viability ([7]; first compound 0.04 µM): 0.428 | relative viability ([7]; first compound 0.1265 µM): 0.428 | relative viability ([7]; first compound 0.4 µM): 0.379 | relative viability ([7]; first compound 1.265 µM): 0.428 | relative viability ([8]; first compound 0.04 µM): 0.293 | relative viability ([8]; first compound 0.1265 µM): 0.313 | relative viability ([8]; first compound 0.4 µM): 0.287 | relative viability ([8]; first compound 1.265 µM): 0.289 | relative viability ([9]; first compound 0.04 µM): 0.65 | relative viability ([9]; first compound 0.1265 µM): 0.697 | relative viability ([9]; first compound 0.4 µM): 0.68 | relative viability ([9]; first compound 1.265 µM): 0.644 | relative viability ([10]; first compound 0.04 µM): 0.548 | relative viability ([10]; first compound 0.1265 µM): 0.581 | relative viability ([10]; first compound 0.4 µM): 0.633 | relative viability ([10]; first compound 1.265 µM): 0.305 | relative viability ([11]; first compound 0.04 µM): 0.261 | relative viability ([11]; first compound 0.1265 µM): 0.311 | relative viability ([11]; first compound 0.4 µM): 0.274 | relative viability ([11]; first compound 1.265 µM): 0.224 | relative viability ([12]; first compound 0.04 µM): 0.522 | relative viability ([12]; first compound 0.1265 µM): 0.591 | relative viability ([12]; first compound 0.4 µM): 0.513 | relative viability ([12]; first compound 1.265 µM): 0.37 | relative viability ([13]; first compound 0.04 µM): 0.37 | relative viability ([13]; first compound 0.1265 µM): 0.407 | relative viability ([13]; first compound 0.4 µM): 0.412 | relative viability ([13]; first compound 1.265 µM): 0.376 | relative viability ([14]; first compound 0.04 µM): 0.327 | relative viability ([14]; first compound 0.1265 µM): 0.372 | relative viability ([14]; first compound 0.4 µM): 0.369 | relative viability ([14]; first compound 1.265 µM): 0.333 | relative viability ([15]; first compound 0.04 µM): 0.343 | relative viability ([15]; first compound 0.1265 µM): 0.466 | relative viability ([15]; first compound 0.4 µM): 0.311 | relative viability ([15]; first compound 1.265 µM): 0.309 | relative viability ([16]; first compound 0.04 µM): 0.375 | relative viability ([16]; first compound 0.1265 µM): 0.397 | relative viability ([16]; first compound 0.4 µM): 0.373 | relative viability ([16]; first compound 1.265 µM): 0.258 | relative viability ([17]; first compound 0.04 µM): 0.759 | relative viability ([17]; first compound 0.1265 µM): 0.78 | relative viability ([17]; first compound 0.4 µM): 0.741 | relative viability ([17]; first compound 1.265 µM): 0.584 | relative viability ([18]; first compound 0.04 µM): 0.987 | relative viability ([18]; first compound 0.1265 µM): 1.09 | relative viability ([18]; first compound 0.4 µM): 1.02 | relative viability ([18]; first compound 1.265 µM): 0.957 | relative viability ([19]; first compound 0.04 µM): 0.692 | relative viability ([19]; first compound 0.1265 µM): 0.72 | relative viability ([19]; first compound 0.4 µM): 0.74 | relative viability ([19]; first compound 1.265 µM): 0.545 | relative viability ([20]; first compound 0.04 µM): 0.778 | relative viability ([20]; first compound 0.1265 µM): 0.777 | relative viability ([20]; first compound 0.4 µM): 0.799 | relative viability ([20]; first compound 1.265 µM): 0.754 | relative viability ([21]; first compound 0.04 µM): 0.13 | relative viability ([21]; first compound 0.1265 µM): 0.189 | relative viability ([21]; first compound 0.4 µM): 0.238 | relative viability ([21]; first compound 1.265 µM): 0.23 | relative viability ([22]; first compound 0.04 µM): 0.903 | relative viability ([22]; first compound 0.1265 µM): 0.976 | relative viability ([22]; first compound 0.4 µM): 1.05 | relative viability ([22]; first compound 1.265 µM): 0.973 | relative viability ([23]; first compound 0.04 µM): 0.574 | relative viability ([23]; first compound 0.1265 µM): 0.575 | relative viability ([23]; first compound 0.4 µM): 0.487 | relative viability ([23]; first compound 1.265 µM): 0.362

Source: the supplement of paper PMC10307832
